Assay results from ChEMBL document CHEMBL4725449, “Brain Penetrable Inhibitors of Ceramide Galactosyltransferase for the Treatment of Lysosomal Storage Disorders” (ACS Med Chem Lett, 2020).
Converted amounts (≈) assume the structure as drawn.

Experiments:
[1] = target: T1, 2-hydroxyacylsphingosine 1-beta-galactosyltransferase (Homo sapiens, UniProt Q16880); assay: Inhibition of UGT8 in human OE19 cells assessed as redcution in SFT accumulation measured after 72 hrs by LC-MS/MS analysis; type: cell-based
T1 sequence (Q16880 whole entry): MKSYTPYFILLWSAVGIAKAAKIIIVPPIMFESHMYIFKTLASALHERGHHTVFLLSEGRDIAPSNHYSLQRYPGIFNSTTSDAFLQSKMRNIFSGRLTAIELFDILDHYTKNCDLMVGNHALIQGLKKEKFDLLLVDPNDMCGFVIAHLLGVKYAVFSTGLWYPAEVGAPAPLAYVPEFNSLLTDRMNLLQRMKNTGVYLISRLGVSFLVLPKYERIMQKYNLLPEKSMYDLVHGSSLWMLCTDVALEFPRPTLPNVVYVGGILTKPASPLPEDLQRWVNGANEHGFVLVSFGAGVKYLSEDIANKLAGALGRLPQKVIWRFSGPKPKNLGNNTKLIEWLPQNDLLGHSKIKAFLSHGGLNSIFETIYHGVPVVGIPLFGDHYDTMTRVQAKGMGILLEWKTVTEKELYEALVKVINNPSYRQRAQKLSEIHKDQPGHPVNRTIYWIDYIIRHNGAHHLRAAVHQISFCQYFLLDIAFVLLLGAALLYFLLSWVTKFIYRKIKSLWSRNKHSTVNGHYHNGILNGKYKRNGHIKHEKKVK

[2] = target: T1, 2-hydroxyacylsphingosine 1-beta-galactosyltransferase; assay: Inhibition of UGT8 in human OE19 cells assessed as redcution in GalCer accumulation measured after 72 hrs by LC-MS/MS analysis; type: cell-based
[3] = Intrinsic clearance in human liver microsomes; type: ADME, Microsome; conditions: read-out: CLH
[4] = Apparent permeability of the compound at pH 6.5 to 7.4 by PAMPA; type: ADME
[5] = Distribution coefficient, log D of the compound; type: physicochemical; conditions: octanol/water
[6] = Drug uptake in C57BL/6 mouse brain at 3 mg/kg, iv measured at 5 mins; type: ADME, organism-based; conditions: read-out: Drug uptake
[7] = Drug uptake in C57BL/6 mouse brain at 3 mg/kg, iv measured at 1 hr; type: ADME, organism-based; conditions: read-out: Drug uptake
[8] = Ratio of drug concentration in brain to plasma in C57BL/6 mouse measured at 5 mins; type: ADME, organism-based; conditions: read-out: BPR
[9] = Ratio of drug concentration in brain to plasma in C57BL/6 mouse measured at 1 hr; type: ADME, organism-based; conditions: read-out: BPR
[10] = Thermodynamic solubility of the compound […] at pH 7.4; type: physicochemical; conditions: read-out: Therm_solubility

SMILES | IC50 [1] [nM] | IC50 [2] [nM] | microsomal CLint [3] [µL/min/mg] | Papp [4] [×10⁻⁶ cm/s] | logD [5] | concentration at 5 min [6] [ng/mL] | concentration at 1 h [7] [ng/mL] | Kp at 5 min [8] | Kp at 1 h [9] | solubility thermodynamic [10] [µM]
CNC(=O)c1csc2c(C(F)(F)F)cc(N3CCN(CC(O)COC(C)(C)C)CC3)nc12 (stereo not drawn) | 190 | 350 | 51 | 78 | 3.7 | 1700 | 210 | 0.93 | 0.35 | 
CCC(=O)c1csc2c(C(F)(F)F)cc(N3CCN(CC(=O)NC(C)C)CC3)nc12 | 97 | 120 | 36 | > 80 | 3.6 | 1400 | 270 | 0.83 | 0.72 | 
CNC(=O)c1csc2c(C(F)(F)F)cc(N3CCC(OC(=O)NCCN4CCCC4)CC3)nc12 | 510 |  |  |  |  |  |  |  |  | 430 (≈ 215 µg/mL)
CC(C)NC(=O)CN1CCN(c2cc(C(F)(F)F)c3scc(C(=O)N4CCC4)c3n2)CC1 | 640 | 320 | 27 | 66 | 2.7 |  |  |  |  | 
CNC(=O)c1csc2c(C(F)(F)F)cc(N3CCN(CC(=O)NC(C)C)CC3)nc12 | 67 | 90 |  |  |  |  |  |  |  | 
CNC(=O)c1csc2c(C(F)(F)F)cc(N3CCC(OC(=O)N4CC(OC(F)(F)F)C4)CC3)nc12 | 1.7 | 2.9 | 41 | > 80 | 5.13 | 3430 | 316 | 1.67 | 0.59 | < 0.5
CNC(=O)c1csc2c(C(F)(F)F)cc(N3CCC(OC(=O)N4CC(CN(C)C)C4)CC3)nc12 | 980 |  |  |  |  |  |  |  |  | 420 (≈ 210 µg/mL)
CNC(=O)c1csc2c(C(F)(F)F)cc(N3CCN(CC(=O)C(C)(C)C)CC3)nc12 | 610 | 1400 | 5 | > 80 | 3.3 | 1100 | 170 | 0.81 | 0.54 | 
CNC(=O)c1csc2c(C(F)(F)F)cc(N3CCC(OC(=O)NCCOC(F)(F)F)CC3)nc12 | 0.4 | 0.6 |  |  | 4.7 | 1640 | 128 | 0.59 | 0.24 | < 0.5
CNC(=O)c1csc2c(C(F)(F)F)cc(N3CCN(CCOC(C)C)CC3)nc12 | 330 | 200 | 96 | > 80 | 3.6 | 3000 | 1700 | 1.8 | 1 | 
CC[C@H](C)NC(=O)OC1CCN(c2cc(C(F)(F)F)c3scc(C(=O)NC)c3n2)CC1 | 0.9 | 0.4 |  |  | 4.56 | 2370 | 192 | 1.45 | 0.76 | < 0.5
CNC(=O)c1csc2c(C(F)(F)F)cc(N3CCN(C(=O)COC(C)C)CC3)nc12 | 660 | 450 | 42 | 69 | 3.1 | 228 | 8 | 0.07 | 0.06 | 

Next, values leading:

IC50 [1] [nM] | IC50 [2] [nM] | microsomal CLint [3] [µL/min/mg] | Papp [4] [×10⁻⁶ cm/s] | logD [5] | concentration at 5 min [6] [ng/mL] | concentration at 1 h [7] [ng/mL] | Kp at 5 min [8] | Kp at 1 h [9] | solubility thermodynamic [10] [µM] | SMILES
200 |  |  |  |  |  |  |  |  |  | CNC(=O)c1csc2c(C(F)(F)F)cc(N3CC(OC(=O)NCC4CC4)C3)nc12
18 | 37 |  |  |  |  |  |  |  |  | CNC(=O)c1csc2c(C(F)(F)F)cc(N3CCC(NC(=O)OCC4CC4)CC3)nc12
1 | 3 | 59 | > 80 | 4.2 | 2140 | 132 | 0.91 | 0.31 |  | CNC(=O)c1csc2c(C(F)(F)F)cc(N3CCC(OC(=O)NCC4CC4)CC3)nc12
610 |  |  |  |  |  |  |  |  |  | CNC(=O)c1csc2c(C(F)(F)F)cc(N3CCC(OC(=O)NCC4CC4)C3)nc12 (stereo not drawn)
2 | 2 | 46 | > 80 | 4.35 | 2700 | 302 | 1.88 | 1.03 |  | CNC(=O)c1csc2c(C(F)(F)F)cc(N3CCC(OC(=O)NC(C)C)CC3)nc12
48 | 43 |  |  |  |  |  |  |  |  | CNC(=O)c1csc2c(C(F)(F)F)cc(N3CC(NC(=O)OCC4CC4)C3)nc12
0.9 | 1.1 | 70 | > 80 | 4.29 | 1480 | 143 | 0.76 | 0.42 | < 0.5 | CNC(=O)c1csc2c(C(F)(F)F)cc(N3CCC(OC(=O)N[C@@H](C)C4CC4)CC3)nc12
170 | 360 | 34 | 75 | 3.3 | 43 |  | 0.01 |  |  | CNC(=O)c1csc2c(C(F)(F)F)cc(N3CCN(C(C)C(=O)NC4CC4)CC3)nc12 (stereo not drawn)
